Reference: publication PMC6691788, “Design and synthesis of phthalazine-based compounds as potent anticancer agents with potential antiangiogenic activity via VEGFR-2 inhibition” (Journal of Enzyme Inhibition and Medicinal Chemistry, 2019)

Columns and labels:
NCI-H522 = assay: NCI 60 cell panel SRB screen; format: cell-based; conditions: Homo sapiens; for activity at 10 µM: NCI-H522, single dose 10 μM, read-out: percent cell growth promotion
OVCAR-5 = assay: NCI 60 cell panel SRB screen; format: cell-based; conditions: Homo sapiens; for activity at 10 µM: OVCAR-5, single dose 10 μM, read-out: percent cell growth promotion
NCI-H23 = assay: NCI 60 cell panel SRB screen; format: cell-based; conditions: Homo sapiens; for activity at 10 µM: NCI-H23, single dose 10 μM, read-out: percent cell growth promotion
OVCAR-4 = assay: NCI 60 cell panel SRB screen; format: cell-based; conditions: Homo sapiens; for activity at 10 µM: OVCAR-4, single dose 10 μM, read-out: percent cell growth promotion
NCI-H226 = assay: NCI 60 cell panel SRB screen; format: cell-based; conditions: Homo sapiens; for activity at 10 µM: NCI-H226, single dose 10 μM, read-out: percent cell growth promotion
SNB-75 = assay: NCI 60 cell panel SRB screen; format: cell-based; conditions: Homo sapiens; for activity at 10 µM: SNB-75, single dose 10 μM, read-out: percent cell growth promotion
CCRF-CEM = assay: NCI 60 cell panel SRB screen; format: cell-based, human; conditions: for activity at 10 µM: single dose 10 μM, read-out: percent cell growth promotion
BT-549 = assay: NCI 60 cell panel SRB screen; format: cell-based; conditions: Homo sapiens
LOX IMVI = assay: NCI 60 cell panel SRB screen; format: cell-based; conditions: Homo sapiens; for activity at 10 µM: read-out: percent cell growth promotion
SW-620 = assay: NCI 60 cell panel SRB screen; format: cell-based; conditions: Homo sapiens; for activity at 10 µM: SW-620, single dose 10 μM, read-out: percent cell growth promotion
MALME-3M = assay: NCI 60 cell panel SRB screen; format: cell-based; conditions: Homo sapiens; for activity at 10 µM: read-out: percent cell growth promotion
COLO 205 = assay: NCI 60 cell panel SRB screen; format: cell-based; conditions: Homo sapiens; for activity at 10 µM: COLO 205, single dose 10 μM, read-out: percent cell growth promotion
T-47D = assay: NCI 60 cell panel SRB screen; format: cell-based; conditions: Homo sapiens, T47D; for activity at 10 µM: read-out: percent cell growth promotion
K-562 = assay: NCI 60 cell panel SRB screen; format: cell-based; conditions: Homo sapiens, K562; for activity at 10 µM: K-562, single dose 10 μM, read-out: percent cell growth promotion
RPMI-8226 = assay: NCI 60 cell panel SRB screen; format: cell-based; conditions: Homo sapiens; for activity at 10 µM: RPMI-8226, single dose 10 μM, read-out: percent cell growth promotion
VEGFR-2 tyrosine kinase = molecular target: T1, VEGFR-2 tyrosine kinase (Homo sapiens, UniProt P35968); assay: In vitro VEGFR-2 tyrosine kinase assay (BPS Bioscience); format: biochemical; conditions: read-out: VEGFR-2 % inhibition; 10 μM concentration
T1 construct: purchased BPS Bioscience 40301
Method: The VEGFR tyrosine kinase assays were performed at BPS Bioscience (www.bpsbioscience.com). All the synthesised compounds representing the six series were evaluated for their ability to inhibit VEGFR-2 tyrosine kinase at single dose of 10 µM.
The VEGFR tyrosine kinase activity at single dose concentration of 10 μM was carried out by BPS Bioscience (www.bpsbioscience.com). VEGFR (BPS#40301) served as the enzyme source and Poly (Glu, Tyr) sodium salt, (4:1, Glu:Tyr) (Sigma#P7244) served as the standardized substrate & Kinase-Glo Plus Luminescence kinase assay kit (Promega#V3772). The IC50 determination was carried out where quality control testing is routinely performed on each of the targets to insure compliance to acceptable standards. ^33P-ATP was purchased from Perkin Elmer and ADP-Glo^TM was purchased from Promega. All other materials were of standard laboratory grade.
The VEGFR tyrosine kinase activity was performed using Kinase-Glo Plus luminescence kinase assay kit (Promega). It measures kinase activity by quantitating the amount of ATP remaining in solution following a kinase reaction. The luminescent signal from the assay is correlated with the amount of ATP present and is inversely correlated with the amount of kinase activity. The compounds were diluted to 100 μM in 10% DMSO and […] of the dilution was added to a […] reaction so that the final concentration of DMSO is 1% in all of reactions. All of the enzymatic reactions were conducted at 30 °C for 40 min. The 50 μl reaction mixture contains […], pH 7.4, […], 0.1 mg/ml BSA, 0.2 mg/ml Poly (Glu, Tyr) substrate, 10 μM ATP and VEGFR. After the enzymatic reaction, […] of Kinase-GloPlus Luminescence kinase assay solution (Promega) was added to each reaction and incubate the plate for 5 min at room temperature. Luminescence signal was measured using a BioTek Synergy 2 microplate reader. The protein kinase assays used to determine IC50 value were performed using ADP-GloTM assay kit from Promega which measures the generation of ADP by the protein kinase. Generation of ADP by the protein kinase reaction leads to an increase in luminescence signal in the presence of ADP-GloTM assay kit. The assay was started by incubating the reaction mixture in a 96-well plate at 30 °C for 30 min. After the 30 min incubation period, the assay was terminated by the addition of […] of ADP-GloTM Reagent (Promega). The 96 well plate was shaken and then incubated for 40 min at ambient temperature. […] of Kinase detection reagent was added, the 96-well reaction plate was then read using the ADP-Glo Luminescences Protocol on a GloMax plate reader (Promega: Catalog #E7031). Blank control was set up that included all the assay components except the addition of appropriate substrate (replace with equal volume of kinase assay buffer). The corrected activity for each protein kinase target was determined by removing the blank control value.
VEGFR activity assays were performed in duplicate at each concentration. The luminescence data were analyzed using the computer software, Graphpad Prism. The difference between luminescence intensities in the absence of VEGFR (Lut) and in the presence of VEGFR (Luc) was defined as 100% activity (Lut - Luc). […] IC50 determination for inhibitor against VEGFR was estimated by generating a graph of log inhibitor vs normalized response with variable using the Prism software.

SR = assay: NCI 60 cell panel SRB screen; format: cell-based; conditions: Homo sapiens; for activity at 10 µM: single dose 10 μM, read-out: percent cell growth promotion
786-0 = assay: NCI 60 cell panel SRB screen; format: cell-based; conditions: Homo sapiens; for activity at 10 µM: 786-0, single dose 10 μM, read-out: percent cell growth promotion
NCI-H322M = assay: NCI 60 cell panel SRB screen; format: cell-based; conditions: Homo sapiens; for activity at 10 µM: single dose 10 μM, read-out: percent cell growth promotion
SK-MEL-28 = assay: NCI 60 cell panel SRB screen; format: cell-based; conditions: Homo sapiens; for activity at 10 µM: SK-MEL-28, read-out: percent cell growth promotion
[1] = 5 log dose, 48 h, read-out: LC50 (the source's name)

T1 sequence (P35968 20-1356): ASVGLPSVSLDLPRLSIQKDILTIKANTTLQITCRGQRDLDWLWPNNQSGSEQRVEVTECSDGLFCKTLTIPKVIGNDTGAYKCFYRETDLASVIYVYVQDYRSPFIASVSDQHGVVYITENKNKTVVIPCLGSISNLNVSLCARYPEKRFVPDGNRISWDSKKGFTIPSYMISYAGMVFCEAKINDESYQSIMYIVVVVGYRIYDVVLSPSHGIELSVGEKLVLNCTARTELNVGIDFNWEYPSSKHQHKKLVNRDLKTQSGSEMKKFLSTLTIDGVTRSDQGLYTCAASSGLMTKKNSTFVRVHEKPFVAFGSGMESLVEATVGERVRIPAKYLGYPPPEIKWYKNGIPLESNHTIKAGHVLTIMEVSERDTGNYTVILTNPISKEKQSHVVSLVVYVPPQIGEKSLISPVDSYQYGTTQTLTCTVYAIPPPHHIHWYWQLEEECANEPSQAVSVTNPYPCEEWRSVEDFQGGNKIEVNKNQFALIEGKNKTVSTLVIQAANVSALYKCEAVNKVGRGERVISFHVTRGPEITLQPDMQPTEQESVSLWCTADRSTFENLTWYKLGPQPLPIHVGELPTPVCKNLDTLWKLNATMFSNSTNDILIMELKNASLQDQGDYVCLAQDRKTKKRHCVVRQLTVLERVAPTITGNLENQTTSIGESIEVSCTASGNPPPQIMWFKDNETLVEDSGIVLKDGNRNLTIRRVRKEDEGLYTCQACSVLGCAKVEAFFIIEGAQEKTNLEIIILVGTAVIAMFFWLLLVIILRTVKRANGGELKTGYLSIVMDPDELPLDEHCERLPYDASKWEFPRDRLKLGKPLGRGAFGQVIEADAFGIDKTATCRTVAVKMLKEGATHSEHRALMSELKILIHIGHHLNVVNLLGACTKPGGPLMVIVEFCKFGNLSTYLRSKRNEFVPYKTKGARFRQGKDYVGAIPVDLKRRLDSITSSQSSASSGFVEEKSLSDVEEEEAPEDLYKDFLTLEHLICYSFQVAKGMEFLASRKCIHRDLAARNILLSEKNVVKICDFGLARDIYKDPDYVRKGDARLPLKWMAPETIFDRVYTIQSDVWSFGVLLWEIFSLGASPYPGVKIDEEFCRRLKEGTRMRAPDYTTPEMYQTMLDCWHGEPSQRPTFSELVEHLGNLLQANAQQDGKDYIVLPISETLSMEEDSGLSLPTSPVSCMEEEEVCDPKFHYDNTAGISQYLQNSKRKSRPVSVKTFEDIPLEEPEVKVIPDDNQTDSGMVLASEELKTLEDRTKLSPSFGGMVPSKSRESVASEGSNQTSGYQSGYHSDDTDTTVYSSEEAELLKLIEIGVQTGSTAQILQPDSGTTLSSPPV

COc1cccc(NCc2nnc(Nc3ccc(Cl)cc3)c3ccccc23)c1 [Compound 16d, N-(4-Chlorophenyl)-4-((3-methoxyphenylamino)methyl)phthalazin-1-amine]
GI50 (NCI-H522; NCI-H522, 5 log dose): 320 nM | IC (TGI) (NCI-H522; NCI-H522, 5 log dose): 3.31 µM | CC50 (NCI-H522; NCI-H522, 5 log dose, 48 h, read-out: LC50 (the source's name)): 13.1 µM | activity at 10 µM (NCI-H522): -43.8% | GI50 (OVCAR-5; OVCAR-5, 5 log dose): 3.38 µM | IC (TGI) (OVCAR-5; OVCAR-5, 5 log dose): 11.8 µM | CC50 (OVCAR-5; OVCAR-5, 5 log dose, 48 h, read-out: LC50 (the source's name)): > 25 µM | activity at 10 µM (OVCAR-5): 8.44% | GI50 (NCI-H23; NCI-H23, 5 log dose): 1220 nM | IC (TGI) (NCI-H23; NCI-H23, 5 log dose): 6.74 µM | CC50 (NCI-H23; NCI-H23, 5 log dose, 48 h, read-out: LC50 (the source's name)): 24.6 µM | activity at 10 µM (NCI-H23): 2.05% | GI50 (OVCAR-4; OVCAR-4, 5 log dose): 1330 nM | IC (TGI) (OVCAR-4; OVCAR-4, 5 log dose): 17.6 µM | CC50 (OVCAR-4; OVCAR-4, 5 log dose, 48 h, read-out: LC50 (the source's name)): > 25 µM | activity at 10 µM (OVCAR-4): 17.2% | GI50 (NCI-H226; NCI-H226, 5 log dose): 950 nM | IC (TGI) (NCI-H226; NCI-H226, 5 log dose): 6.82 µM | CC50 (NCI-H226; NCI-H226, 5 log dose, 48 h, read-out: LC50 (the source's name)): > 25 µM | activity at 10 µM (NCI-H226): -22.9% | GI50 (SNB-75; SNB-75, 5 log dose): 290 nM | IC (TGI) (SNB-75; SNB-75, 5 log dose): 5.27 µM | LC50 (concentration killing 50% of cells) (SNB-75; SNB-75, 5 log dose, 48 h): 23.1 µM | activity at 10 µM (SNB-75): -6.06% | TGI (CCRF-CEM; 5 log dose): 13.4 µM | GI50 (CCRF-CEM; Homo sapiens, 5 log dose): 2730 nM | CC50 (CCRF-CEM; Homo sapiens, 5 log dose, 48 h, read-out: LC50 (the source's name)): > 25 µM | activity at 10 µM (CCRF-CEM; Homo sapiens): -4.42% | GI50 (BT-549; BT-549): 1900 nM | IC (TGI) (BT-549; BT-549, read-out: TGI): 7.42 µM | activity at 10 µM (BT-549; BT-549, read-out: percent cell growth promotion): -12.2% | CC50 (BT-549; BT-549, 5 log dose, 48 h, read-out: LC50 (the source's name)): 24.8 µM | GI50 (LOX IMVI): 1110 nM | CC50 (LOX IMVI; [1]): 12.8 µM | IC (TGI) (LOX IMVI; read-out: TGI): 4.83 µM | activity at 10 µM (LOX IMVI): -58.7% | GI50 (SW-620; SW-620, 5 log dose): 2980 nM | IC (TGI) (SW-620; SW-620, 5 log dose): 8.13 µM | CC50 (SW-620; SW-620, 5 log dose, 48 h, read-out: LC50 (the source's name)): 22.2 µM | activity at 10 µM (SW-620): 11.9% | GI50 (MALME-3M; Malme-3M): 1220 nM | IC (TGI) (MALME-3M; Malme-3M, read-out: TGI): 6.23 µM | activity at 10 µM (MALME-3M; Malme-3M): -22% | CC50 (MALME-3M; MALME-3M, 5 log dose, 48 h, read-out: LC50 (the source's name)): 17.3 µM | GI50 (COLO 205; COLO 205, 5 log dose): 490 nM | IC (TGI) (COLO 205; COLO 205, 5 log dose): 4.01 µM | CC50 (COLO 205; COLO 205, 5 log dose, 48 h, read-out: LC50 (the source's name)): 15.4 µM | activity at 10 µM (COLO 205): -22.2% | GI50 (T-47D): 640 nM | IC (TGI) (T-47D; read-out: TGI): 6.56 µM | activity at 10 µM (T-47D): -8.49% | CC50 (T-47D; T-47D, 5 log dose, 48 h, read-out: LC50 (the source's name)): > 25 µM | GI50 (K-562; K-562, 5 log dose): 1490 nM | IC (TGI) (K-562; K-562, 5 log dose): 13.1 µM | CC50 (K-562; K-562, 5 log dose, 48 h, read-out: LC50 (the source's name)): > 25 µM | activity at 10 µM (K-562): 2.2% | GI50 (RPMI-8226; RPMI-8226, 5 log dose): 1480 nM | IC (TGI) (RPMI-8226; RPMI-8226, 5 log dose): 7.51 µM | CC50 (RPMI-8226; RPMI-8226, 5 log dose, 48 h, read-out: LC50 (the source's name)): > 25 µM | activity at 10 µM (RPMI-8226): -28.1% | inhibition at 10 µM (VEGFR-2 tyrosine kinase): 24% | GI50 (SR; 5 log dose): 970 nM | IC (TGI) (SR; 5 log dose): 8.85 µM | CC50 (SR; [1]): > 25 µM | activity at 10 µM (SR): -24.5% | GI50 (786-0; 786-0, 5 log dose): 2220 nM | IC (TGI) (786-0; 786-0, 5 log dose): 7.63 µM | CC50 (786-0; 786-0, 5 log dose, 48 h, read-out: LC50 (the source's name)): 24.4 µM | activity at 10 µM (786-0): -5.76% | GI50 (NCI-H322M; 5 log dose): 1400 nM | IC (TGI) (NCI-H322M; 5 log dose): 7.85 µM | CC50 (NCI-H322M; [1]): > 25 µM | activity at 10 µM (NCI-H322M): 3.32% | GI50 (SK-MEL-28; SK-MEL-28): 2620 nM | IC (TGI) (SK-MEL-28; SK-MEL-28, read-out: TGI): 6.17 µM | activity at 10 µM (SK-MEL-28): -16.1% | CC50 (SK-MEL-28; SK-MEL-28, 5 log dose, 48 h, read-out: LC50 (the source's name)): 14.5 µM

Cc1nnc(N2CCN(c3ccccc3F)CC2)c2ccccc12 [Compound 8h, 1–(4-(2-Fluorophenyl)piperazin-1-yl)-4-methylphthalazine]
activity at 10 µM (NCI-H522): 89% | activity at 10 µM (OVCAR-5): 87.9% | activity at 10 µM (NCI-H23): 101% | activity at 10 µM (OVCAR-4): 91.8% | activity at 10 µM (NCI-H226): 90.1% | activity at 10 µM (SNB-75): 109% | activity at 10 µM (CCRF-CEM; Homo sapiens): 99.7% | activity at 10 µM (LOX IMVI): 106% | activity at 10 µM (SW-620): 106% | activity at 10 µM (MALME-3M; Malme-3M): 103% | activity at 10 µM (COLO 205): 120% | activity at 10 µM (T-47D): 82.3% | activity at 10 µM (K-562): 110% | activity at 10 µM (RPMI-8226): 101% | inhibition at 10 µM (VEGFR-2 tyrosine kinase): 9% | activity at 10 µM (SR): 95.1% | activity at 10 µM (786-0): 90.2% | activity at 10 µM (NCI-H322M): 121% | activity at 10 µM (SK-MEL-28): 104%
